Reference: US20250041284A1, “TREATMENT OF NEUROLOGICAL DISORDERS” (Praxis Precision Medicines, Inc., priority 2022, published 2025)
“Also recorded” adds a separate entry of the source. Read-outs that look alike come from different tables or passages of the source.

Tests used:
human NaV1.6 [1] = target: T1, human NaV1.6 (Homo sapiens, UniProt Q9UQD0); assay: Persistent (late) INa inhibition, ATX-II activated, automated patch clamp in HEK cells; format: cell-based; details: for Persistent INa Hill slope: hNaV1.6 in HEK cells, ATX-II
T1 construct: HEK-293 cell lines stably expressing human NaV1.6 (NP_055006) were used; expressed in transfected cells
T1 sequence (Q9UQD0 whole entry): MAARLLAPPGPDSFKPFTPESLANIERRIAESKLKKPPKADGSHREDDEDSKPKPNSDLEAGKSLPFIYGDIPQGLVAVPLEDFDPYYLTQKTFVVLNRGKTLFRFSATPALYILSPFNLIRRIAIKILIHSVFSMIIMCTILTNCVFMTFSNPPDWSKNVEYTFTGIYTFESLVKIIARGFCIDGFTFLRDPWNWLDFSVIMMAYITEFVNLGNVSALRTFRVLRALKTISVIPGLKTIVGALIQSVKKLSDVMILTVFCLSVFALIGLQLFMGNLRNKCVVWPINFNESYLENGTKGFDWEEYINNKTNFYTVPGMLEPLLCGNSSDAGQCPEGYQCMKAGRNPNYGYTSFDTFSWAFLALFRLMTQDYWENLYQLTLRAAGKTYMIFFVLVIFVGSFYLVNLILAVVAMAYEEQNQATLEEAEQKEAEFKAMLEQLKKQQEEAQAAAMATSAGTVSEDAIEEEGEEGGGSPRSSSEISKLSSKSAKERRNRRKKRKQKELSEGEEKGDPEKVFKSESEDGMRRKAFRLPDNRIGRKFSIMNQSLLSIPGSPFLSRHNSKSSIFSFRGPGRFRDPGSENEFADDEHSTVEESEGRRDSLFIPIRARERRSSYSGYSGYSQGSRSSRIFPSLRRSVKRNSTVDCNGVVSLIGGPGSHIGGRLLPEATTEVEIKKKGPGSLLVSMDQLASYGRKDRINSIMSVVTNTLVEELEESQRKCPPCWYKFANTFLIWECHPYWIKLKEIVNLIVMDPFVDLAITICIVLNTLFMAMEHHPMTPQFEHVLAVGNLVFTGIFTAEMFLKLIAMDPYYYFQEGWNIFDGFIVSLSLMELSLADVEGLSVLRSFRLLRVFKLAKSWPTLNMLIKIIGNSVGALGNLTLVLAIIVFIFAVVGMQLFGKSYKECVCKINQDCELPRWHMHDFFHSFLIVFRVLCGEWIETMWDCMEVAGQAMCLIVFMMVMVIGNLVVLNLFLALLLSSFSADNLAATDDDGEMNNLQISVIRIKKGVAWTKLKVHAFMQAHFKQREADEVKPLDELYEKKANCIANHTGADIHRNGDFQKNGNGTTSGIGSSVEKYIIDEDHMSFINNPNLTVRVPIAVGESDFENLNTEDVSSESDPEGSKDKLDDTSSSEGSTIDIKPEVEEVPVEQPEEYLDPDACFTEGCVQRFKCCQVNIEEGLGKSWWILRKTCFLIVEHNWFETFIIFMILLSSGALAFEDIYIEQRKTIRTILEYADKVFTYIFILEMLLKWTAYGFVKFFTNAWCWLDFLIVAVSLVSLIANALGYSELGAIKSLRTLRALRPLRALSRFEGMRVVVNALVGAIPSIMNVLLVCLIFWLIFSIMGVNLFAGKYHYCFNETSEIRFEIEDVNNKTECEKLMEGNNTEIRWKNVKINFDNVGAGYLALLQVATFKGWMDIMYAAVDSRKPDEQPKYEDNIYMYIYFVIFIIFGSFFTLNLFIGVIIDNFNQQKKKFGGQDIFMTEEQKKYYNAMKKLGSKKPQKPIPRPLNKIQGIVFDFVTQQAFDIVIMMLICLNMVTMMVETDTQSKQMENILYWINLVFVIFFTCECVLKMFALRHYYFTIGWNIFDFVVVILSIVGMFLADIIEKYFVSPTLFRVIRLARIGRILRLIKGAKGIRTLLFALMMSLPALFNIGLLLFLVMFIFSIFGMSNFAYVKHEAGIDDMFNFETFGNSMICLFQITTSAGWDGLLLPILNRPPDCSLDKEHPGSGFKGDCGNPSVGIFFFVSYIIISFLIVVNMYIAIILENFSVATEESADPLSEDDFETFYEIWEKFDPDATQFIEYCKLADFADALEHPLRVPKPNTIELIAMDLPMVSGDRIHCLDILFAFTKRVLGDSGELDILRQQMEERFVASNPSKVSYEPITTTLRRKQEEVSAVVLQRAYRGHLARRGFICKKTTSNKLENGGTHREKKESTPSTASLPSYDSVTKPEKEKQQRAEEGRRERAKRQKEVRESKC

human NaV1.6 [2] = target: T1, human NaV1.6; assay: Peak INa tonic block (TB), automated patch clamp in HEK cells; format: cell-based; details: for Ratio to Pers. INa (Peak INa TB): peak INa TB IC50 / persistent INa IC50; for Peak INa TB Hill slope: tonic block
hNaV1.6 [3] = target: T2, hNaV1.6 (Homo sapiens, UniProt Q9UQD0); assay: Peak INa voltage-dependent block (VDB), automated patch clamp in HEK cells; format: cell-based; details: for Ratio to Pers. INa (Peak INa VDB): VDB IC50 / persistent INa IC50; for Peak INa VDB Hill slope: voltage-dependent block
T2 construct: expressed in transfected cells; host or cells: HEK cells
T2 sequence (Q9UQD0 whole entry): as above

human NaV1.6 [4] = target: T1, human NaV1.6; assay: Peak INa use-dependent block (UDB-10 Hz), automated patch clamp in HEK cells; format: cell-based; details: for Ratio to Pers. INa (Peak INa UDB-10 Hz): UDB IC50 / persistent INa IC50; for Peak INa UDB-10 Hz Hill slope: use-dependent block 10 Hz; for UDB preference to TB: TB IC50 / UDB IC50; for activity dependent block of peak INa: in words, FIGS. 7A-7C
hNaV1.6 [5] = target: T2, hNaV1.6; assay: Apparent binding (KON) and unbinding (KOFF) rates inferred from INa inhibition kinetics; format: cell-based; details: read-out: apparent KON
[6] = system: MES-induced tonic hindlimb extension in male CD-1 mice; assay: MES acute seizure model, protection from tonic hindlimb extension (Example 9); format: in vivo, mouse; details: for ED50: Mus musculus, administered dose
Protocol: Male CD-1 mice (Vital River, Beijing, China) approximately 6 weeks old were obtained for the study. Body weights were between 20.5 grams and 38.5 grams at the time the experiments were carried out. […] Food and water were available ad libitum.
Treatment was conducted using Compound 1 and 35% 2-hydroxypropyl-β-cyclodextrin (35% HPBCD, used as a negative control). Compound 1 stock solution was prepared fresh each experiment day in 35% HPBCD and protected from light. The stock solution was diluted with vehicle for lower doses.
Mice were brought to the test room at least one hour before the start of the experiment. Mice were administered valproate (VPA; 400 mg/kg, intraperitoneally); or vehicle (35% HPBCD, 10 mL/kg, intraperitoneally); or Compound 1 (0.3 mg/kg, 1 mg/kg, 3 mg/kg or 10 mg/kg, orally) 30 minutes prior to the MES test.
The electroshock apparatus was set to deliver a 50 mA square-wave stimulus, with a 0.8 second duration, a pulse width of 10 milliseconds, and a frequency of 50 Hz. A pair of custom stainless-steel electrodes were soaked in 0.2% agar, and then the subject received bilateral transauricular stimulation through ear-clip electrodes. During the stimulation, mice were manually restrained then released immediately into an observation cage where they were monitored continuously for 60 seconds by an observer blinded to treatment group.
Mice were anesthetized with CO2 and terminal plasma and brain tissue samples were collected. […] The supernatant plasma was pipetted into Eppendorf tubes.
All statistical analyses were conducted using GraphPad Prism 9.3. Means were combined and standard error was calculated using the Satterthwaite Approximation to combine standard deviations. […] ED50 and EC50 values were calculated from these fit curves.

[7] = system: psychomotor seizures induced by 6-Hz electrical stimulation in wild-type CD-1 mice; assay: 6-Hz psychomotor seizure model; format: in vivo, mouse; details: 600 mg/kg intraperitoneally
Source text: This study evaluated the efficacy of Compound 1 in attenuating psychomotor seizures induced by 6-Hz electrical stimulation at two different stimulation intensities (32 and 44 mA) in wild-type CD-1 mice. Psychomotor seizures are defined as the expression of at least one of the following behaviors: stun/immobility, forelimb clonus, straub tail or lateral head movement within 30 seconds of the stimulus. Protection is defined as a complete absence of the above behaviors within 30 seconds of the stimulus. Doses of Compound 1 used were 1 mg/kg, 3 mg/kg and 6 mg/kg administered orally. Valproate (600 mg/kg, administered intraperitoneally) was used as a positive control.
Male CD-1 mice (Charles River Laboratories; St. Constant, Quebec, CAN) were used for the study. Body weights at the time the experiment was carried out were 30-40 grams. The mice were group-housed in polycarbonate cages according to standard operating procedures. Animals were maintained on a 12-hour light/12 hour dark cycle, with all experimental activities occurring during the light phase. Food and water were available ad libitum. Mice acclimated to the test facility for at least 72 hours prior to testing.
Treatment was conducted using Compound 1 and 35% 2-hydroxypropyl-β-cyclodextrin (35% HPBCD, used as a negative control). Compound 1 stock solution was prepared fresh each experiment day in 35% HPBCD. […] Valproate was prepared fresh each experiment day in a vehicle of saline and dosed at 10 mL/kg.
Mice were administered vehicle (35% HPBCD), a single dose of Compound 1 (1 mg/kg, 3 mg/kg or 6 mg/kg) or valproate (600 mg/kg). Vehicle and Compound 1 were administered via oral gavage 30 minutes prior to […]. Valproate was administered as an intraperitoneal injection 60 minutes prior to the electrical stimulus.
Immediately prior to conducting the 6-Hz seizure test, a brief neurological assessment was performed. Each animal was visually assessed and received a score from 0 to 3 according to the following scoring system::neurological score of 0 corresponds to a normal status; neurological score of 1 corresponds to a modest decrease in spontaneous activity; neurological score of 2 corresponds to a marked decrease in spontaneous activity; and neurological score of 3 corresponds to loss of righting reflex.
Corneal electrodes moistened with saline (ECT unit 57800; Ugo Basile) were used to deliver the electrical stimulus (6-Hz, 0.2 millisecond pulse width, 3 seconds duration). The current delivered was either 32 mA or 44 mA. Immediately after the electrical stimulus, each mouse was monitored continuously for 30 seconds by an observer blinded to the treatment group. […] Mice were scored for the presence or absence of each seizure behavior, with a maximum total score of 4. […] At the end of the 6-Hz seizure test, plasma and brain samples were collected.
Mice were anesthetized with isoflurane, whole blood was collected via cardiac puncture and brains were harvested. Whole blood was collected in potassium EDTA tubes and centrifuged at ˜3300 g for 5 minutes at 4° C. to isolate plasma. Plasma and brain samples were stored at −80° C. and analyzed to determine levels of Compound 1.
All statistical analyses were conducted using GraphPad Prism 9.3. Seizure scores were compared using Kruskal-Wallis test, followed by Dunn's post hoc and p<0.05 was considered statistically significant.

[8] = 400 mg/kg intraperitoneally, listed as valproate

Structure (SMILES)	Persistent INa Hill slope (human NaV1.6 [1])	Ratio to Pers. INa (Peak INa TB) (human NaV1.6 [2])	Peak INa TB Hill slope (human NaV1.6 [2])	Ratio to Pers. INa (Peak INa VDB) (hNaV1.6 [3])	Peak INa VDB Hill slope (hNaV1.6 [3])	Ratio to Pers. INa (Peak INa UDB-10 Hz) (human NaV1.6 [4])	Peak INa UDB-10 Hz Hill slope (human NaV1.6 [4])	ED50 [6]	other results
NC(=O)N1c2ccccc2CC(=O)c2ccccc21 [Oxcarbazepine, oxcarbazepine]	(1.0)	8	(1.7)	0.3	(1.1)	–	–	–	–
O=C1NC(=O)C(c2ccccc2)(c2ccccc2)N1 [Phenytoin, phenytoin]	(0.8)	–	–	0.8	(1.0)	15	(0.6)	–	–
NC(=O)N1c2ccccc2C=Cc2ccccc21 [Carbamazepine, carbamazepine]	(1.1)	30	(1.0)	0.6	(0.9)	18	(0.9)	5.4 mg/kg	preference for persistent INa relative to peak INa (human NaV1.6 [1]; in words, FIGS. 1A-1D): no preference for persistent INa; UDB preference to TB (human NaV1.6 [4]): no UDB observed; activity dependent block of peak INa (human NaV1.6 [4]): minimal activity dependent block of peak INa; kon (hNaV1.6 [5]; development of inhibition of hNaV1.6 INa): 11000 M⁻¹ s⁻¹
Cc1cc(N2CCc3cc(F)ccc3C2)cc(C)c1NC(=O)CC(C)(C)C [XEN1101]	–	–	–	–	–	–	–	3.9 mg/kg	–
CCCC(CCC)C(=O)O [Valproic acid]	–	–	–	–	–	–	–	–	sedation before MES test ([6]; 400 mg/kg intraperitoneally, listed as Valproate): mild to moderate sedation; protection against MES-induced hindlimb extension [6, 8]: all mice n=24 were seizure-free; also recorded: protected mice from MES-induced tonic hindlimb extension; sedation before MES test [6, 8]: nearly all valproate-treated mice showed mild to moderate sedation; neurological score (average) [7]: 1.2; spontaneous activity [7]: modest to marked decrease in spontaneous activity
Nc1nnc(-c2cccc(Cl)c2Cl)c(N)n1 [Lamotrigine, lamotrigine]	(1.0)	–	(0.8)	–	(0.9)	–	(1.0)	3.8 mg/kg	activity dependent block of peak INa (human NaV1.6 [4]): minimal activity dependent block of peak INa
NC(=O)O[C@@H](Cn1ncnn1)c1ccccc1Cl [Cenobamate, cenobamate]	(1.1)	24	(1.1)	0.9	(0.9)	11	(0.7)	4.1 mg/kg	UDB preference to TB (human NaV1.6 [4]): 2.3 ×; kon (hNaV1.6 [5]): 19000 M⁻¹ s⁻¹
COC[C@@H](NC(C)=O)C(=O)NCc1ccccc1 [Lacosamide, lacosamide]	(0.9)	–	–	0.3	(1.2)	0.8	(1.3)	–	–
